Measurements as given in paper PMC12428554, “Anti-HIV and Antimicrobial Activity of 7-Hydrazino-8-hydroxyquinoline-Based Aromatic Hydrazones” (International Journal of Molecular Sciences, 2025).
Where “and” joins values, the source holds several entries; their conditions need not be identical. Equal entries are not always repeated. One block for each compound: values may come before it.

Legend:
[1] = molecular target: T1, recombinant HIV-1 Integrase (strand transfer) (Human immunodeficiency virus type 1 group M subtype B, UniProt P04585); set-up: method as in PMID 12234864; conditions: positive control, known value; cited from earlier work
T1 construct: The recombinant HIV-1 Integrase (In) was isolated from the Rosetta Escherichia coli producer strain; made in house; host or cells: Escherichia coli Rosetta

C. albicans ATCC 10231 = experiment: MIC by twofold serial dilution, C. albicans; format: cell-based; conditions: Candida albicans, ATCC10231; 24 h, 35 °C; read-out: MIC (Mean ± SE) C. albicans ATCC 10231
Protocol: (§1) Candida albicans ATCC 10231, Pseudomonas aeruginosa ATCC 27853, and Staphylococcus aureus ATCC 29213 strains were obtained from the American Type Culture Collection (ATCC; Rockville, MD, USA). The subculture and inoculum preparation were performed according to CLSI M27-A3 for C. albicans on yeast extract peptone dextrose (YPD) agar (HiMedia, Mumbai, Maharashtra, India) and RPMI-1640 medium (PanEco, Moscow, Russia) with MOPS (3-(N-morpholino) propanesulfonic acid, >99.5%; PanEco, Moscow, Russia), and M7-A11 for P. aeruginosa and S. aureus on Mueller-Hinton agar (MHA; HiMedia, Mumbai, Maharashtra, India) and Mueller-Hinton broth (MHB; HiMedia, Mumbai, Maharashtra, India). The stock cell concentrations of fungus and bacteria were 1 × 10^6 and 1 × 10^8 cells/mL, respectively. A working suspension of C. albicans (5.0 × 10^2 cells/mL) was prepared by two-step dilution of the broth concentration with the RPMI-1640 medium. Assay suspensions of P. aeruginosa and S. aureus (1.0 × 10^6 cells/mL) were prepared by diluting the concentration with Mueller-Hinton broth (HiMedia, Mumbai, Maharashtra, India). Amphotericin B (Sigma-Aldrich, Burlington, MA, USA) and gentamicin (Sigma-Aldrich, Burlington, MA, USA) were used as secondary pharmaceutical standards.
(§2) The minimum inhibitory concentration (MIC) was determined by the twofold serial dilution method, according to CLSI M27-A3 [33] and M07-A11 [34], in three independent experiments with four replicates each. Amphotericin B was used as a positive control for fungus; gentamicin was used as a positive control for bacteria. Stock solutions except gentamicin were prepared in DMSO at a concentration of 6400 μg/mL. Gentanicin was solubilized in sterile water at a concentration of 1280 μg/mL. Stock solutions of the tested substances were diluted to the final concentrations in the assay medium and 100 μL of each sample was added to the wells of 96-well plates, and then 100 μL of inoculum was added. Rows 11 and 12 were left for the negative control (medium with inoculum without the drug) and sterility control. The plates were incubated for 24 h at 35 °C in the case of C. albicans and at 37 °C in the case of P. aeruginosa and S. aureus. The tested concentration for gentamicin ranged from 0.0625 to 32 μg/mL; for other compounds, it ranged from 0.125 to 64 μg/mL. The MIC value was determined using spectrophotometer. The MIC was taken to be the lowest drug concentration that caused complete inhibition of microorganism growth compared to the control. The final MIC values were reported as the means with standard error (SE). Standard errors for µg/mL values less than 0.01 were excluded; standard errors for µM values less than 0.1 were excluded (Table 3).

Ku70 = tested on: Ku70; set-up: method as in PMID 27130816; conditions: read-out: IC50, Ku70 interaction with DNA; cited from earlier work
S. aureus ATCC 29213 = experiment: MIC by twofold serial dilution, S. aureus; format: cell-based; conditions: Staphylococcus aureus, ATCC29213, 24 h, 37 °C, read-out: MIC (Mean ± SE) S. aureus ATCC 29213
Protocol: as §1, §2

P. aeruginosa ATCC 27853 = experiment: MIC by twofold serial dilution, P. aeruginosa; format: cell-based; conditions: Pseudomonas aeruginosa, ATCC27853; 24 h, 37 °C; read-out: MIC (Mean ± SE) P. aeruginosa ATCC 27853
Protocol: as §1, §2

[2] = tested on: HIV Rev – HIV RNA complex; set-up: method as in PMID 25503645, PMID 17967062; conditions: Figure 1; cited from earlier work
[3] = tested on: HIV-1 (subtype B) in MT-4 cells; experiment: Antigen p24 assay in HIV-infected MT-4 cells; format: cell-based; conditions: Human immunodeficiency virus 1, MT4; HIV-1 899A strain (subtype B), third day after infection
Protocol: The human MT-4 lymphoblastoid cells were cultured in RPMI 1640 medium supplemented with 10% fetal bovine serum (FBS) (HyClone, Logan, UT, USA), 2 mM L-glutamine, 50 U/mL penicillin, and 50 μg/mL streptomycin in a humidified atmosphere of 5% CO2 at 37 °C. The cells were re-seeded at a density of 3.0 × 10^5 cells/mL every three days. The HIV-1_899A strain (subtype B) was used from the collection of human immunodeficiency virus strains of the D.I. Ivanovsky Institute of Virology, N. F. Gamaleya National Research Center of Epidemiology and Microbiology, Ministry of Health, Moscow, Russia. The commercial drug Efavirenz (EFV), a non-nucleoside inhibitor of HIV reverse transcriptase, was used as a positive control. HIV-1 was added to the cells at 0.1 CCID50 (50% cell culture infectious dose). The cells, both infected and non-infected, were then incubated at 37 °C in a humidified atmosphere containing 5% CO2 for a 40 min period, after which the cells were washed twice in serum-free RPMI 1640 and plated into the wells of a 96-well plate. The tested compounds were then added to the cells at concentrations from 0.5 μM to 100 μM. The final ethanol concentration was 1% v/v. On the third day after infection, the culture fluid was collected for determining the amount of p24 antigen by enzyme immunoassay analysis using a commercial test system kit (Genscreen ULTRA HIV Ag-Ab, Bio-Rad, Hercules, CA, USA). Cell viability was measured by MTT assay.

SMILES: O=C(O)C(=O)CC(=O)c1cc(OCc2ccccc2)cc(OCc2ccccc2)c1 [L-708,906]
IC50 [1]: 500 ± 100 nM

MIC (C. albicans ATCC 10231): 0.4 µg/mL and 0.4 µM
SMILES: C[C@@H]1[C@H](O)[C@@H](C)/C=C/C=C/C=C/C=C/C=C/C=C/C=C/[C@H](O[C@@H]2O[C@H](C)[C@@H](O)[C@H](N)[C@@H]2O)C[C@@H]2O[C@](O)(C[C@@H](O)C[C@@H](O)[C@H](O)CC[C@@H](O)C[C@@H](O)CC(=O)O[C@H]1C)C[C@H](O)[C@H]2C(=O)O [Amphotericin B, reference compound]

SMILES: COc1ccc(CCNc2ncc3c(=O)n(-c4cccc(F)c4)c(=O)[nH]c3n2)cc1OC [STL127705]
IC50 (Ku70): 3500 nM

MIC (S. aureus ATCC 29213): 0.6 µg/mL and 1.3 µM
MIC (P. aeruginosa ATCC 27853): 2 µg/mL and 4.2 µM
SMILES: CNC(C)C1CCC(N)C(OC2C(N)CC(N)C(OC3OCC(C)(O)C(NC)C3O)C2O)O1 (stereo not shown) [Gentamicin, reference compound]

SMILES: FC(F)(F)Oc1ccc(Nc2ccc3cccc(Cl)c3n2)cc1 [ABX464]
IC50 [2]: 100 to 500 nM

SMILES: O=C1Nc2ccc(Cl)cc2[C@@](C#CC2CC2)(C(F)(F)F)O1 [EFV, Efavirenz, reference compound]
IC50 [3]: < 50 nM
